Data taken from US9938510B2, “Photobacterium sp. alpha-2-6-sialyltransferase variants” (The Regents of the University of California, priority 2014, dated 2018).
Read-outs that look alike come from different tables or passages of the source.

B1: Photobacterium damselae α2-6-sialyltransferase His6-Pd2,6ST(16-497) (Photobacterium damselae) (protein)
chain: CNSDNTSLKETVSSNSADVVETETYQLTPIDAPSSFLSHSWEQTCGTPILNESDKQAISFDFVAPELKQDEKYCFTFKGITGDHRYITNTTLTVVAPTLEVYIDHASLPSLQQLIHIIQAKDEYPSNQRFVSWKRVTVDADNANKLNIHTYPLKGNNTSPEMVAAIDEYAQSKNRLNIEFYTNTAHVFNNLPPIIQPLYNNEKVKISHISLYDDGSSEYVSLYQWKDTPNKIETLEGEVSLLANYLAGTSPDAPKGMGNRYNWHKLYDTDYYFLREDYLDVEANLHDLRDYLGSSAKQMPWDEFAKLSDSQQTLFLDIVGFDKEQLQQQYSQSPLPNFIFTGTTTWAGGETKEYYAQQQVNVINNAINETSPYYLGKDYDLFFKGHPAGGVINDIILGSFPDMINIPAKISFEVLMMTDMLPDTVAGIASSLYFTIPADKVNFIVFTSSDTITDREEALKSPLVQVMLTLGIVKEKDVLFWA

Legend:
[1] = system: Photobacterium sp. JH-ISH-224 α2-6-sialyltransferase Psp26ST(15-501)-His6, wild type, SEQ ID NO: 23; conditions: apparent, donor CMP-Neu5Ac, cited from earlier work
[2] = system: Photobacterium sp. JH-ISH-224 α2-6-sialyltransferase Psp26ST(15-501)-His6 A366G mutant, SEQ ID NO: 2; test: Sialyltransferase kinetics, Psp26ST(15-501)-His6 A366G mutant; format: biochemical; conditions: apparent, varied CMP-Neu5Ac
Protocol: Reactions were carried out in duplicate at 20° C. for 20 minutes in a total volume of 10 μL in a proper buffer at the optimal pH according to the pH profile of the wild-type enzyme (see, Ding, 2011, supra). When LacβMU was used as an acceptor, the conditions were: Tris-HCl buffer (200 mM, pH 8.0), enzyme (0.3 μM), varied concentrations of LacβMU (0.1, 0.25, 0.4, 1.0, 2.0, 4.0, and 6.0 mM) with a fixed concentration of CMP-Neu5Ac (1.0 mM) or varied concentrations of CMP-Neu5Ac (0.1, 0.25, 0.4, 1.0, 2.0, 4.0, and 6.0 mM) with a fixed concentration of LacβMU (1.0 mM). When GalNAcα2AA was used as an acceptor, the conditions were: NaOAc-HOAc buffer (200 mM, pH 5.0), enzyme (6 μM), varied concentrations of GalNAcα2AA (0.5, 0.8, 1.0, 2.0, 4.0, 8.0, and 10.0 mM) and a fixed concentration of CMP-Neu5Ac (4.0 mM) or varied concentrations of CMP-Neu5Ac (0.5, 1.0, 2.0, 4.0, 5.0, 8.0, and 10.0 mM) with a fixed concentration of GalNAcα2AA (1.0 mM). When GalNAcαSer was used as an acceptor, the conditions were: Tris-HCl buffer (200 mM, pH 8.0), enzyme (0.6 μM), varied concentrations of GalNAcαSer (0.1, 0.25, 0.5, 1.0, 2.0, 4.0, 8.0, and 10.0 mM) and a fixed concentration of CMP-Neu5Ac (2.0 mM). When GalNAcαThr was used as an acceptor, the conditions were: Tris-HCl buffer (200 mM, pH 8.0), enzyme (3.0 μM), varied concentrations of GalNAcαThr (0.5, 1.0, 2.0, 4.0, 10.0, 20.0, 40.0, 60.0 mM) and a fixed concentration of CMP-Neu5Ac (4.0 mM). Results analysis was performed using the HPLC system as described above for sialyltransferase activity assays. Apparent kinetic parameters were obtained by fitting the experimental data (the average values of duplicate assay results) into the Michaelis-Menten equation using Grafit 5.0.

[3] = molecular target: Photobacterium sp. JH-ISH-224 α2-6-sialyltransferase Psp2,6ST(15-501)-His6, wild type, SEQ ID NO: 23 (Photobacterium sp. JT-ISH-224, UniProt A8QYL1); test: Donor hydrolysis kinetics (CMP-Neu5Ac hydrolysis), wild-type Psp2,6ST(15-501)-His6; format: biochemical; conditions: apparent, 20° C., 10 min, Tris-HCl pH 8.0
Protocol: (§1) Procedure for Kinetic Analysis of Donor Hydrolysis by His6-Pd2,6ST(16-497), Psp26ST(15-501)-His6 and its A235D and A366G Mutants
(§2) The kinetics study for the donor hydrolysis activity of His6-Pd2,6ST(16-497) was carried out at 37° C. for 20 min in Tris-HCl buffer (200 mM, pH 8.0). The kinetics study for the donor hydrolysis activities of Psp26ST(15-501)-His6 and its A235D mutant was carried out at 20° C. for 10 min in Tris-HCl buffer (200 mM, pH 8.0). All reactions were performed in duplicate in a total volume of 10 μL containing varied concentrations of CMP-Neu5Ac (10, 20, 40, 60, 80 and 100 mM) and the enzyme (6 μM). Reactions were stopped by adding 10 μL of ethanol and then centrifuged. The supernatants were analyzed by a P/ACETM capillary electrophoresis (CE) system equipped with a photodiode array (PDA) detector (Beckman Coulter, Inc., Fullerton, Calif.). CE conditions were as follows: 75 μm i.d. capillary, 25 KV/80μÅ, 5 s vacuum injections, monitored at 200 nm and 254 nm, the running buffer used was sodium tetraborate (25 mM, pH 9.4). Apparent kinetic parameters were obtained by fitting the experimental data (the average values of duplicate assay results) into the Michaelis-Menten equation using Grafit 5.0.

[4] = substrate: CC(=O)N[C@H]1[C@H]([C@H](O)[C@H](O)CO)O[C@](OP(=O)(O)OC[C@H]2O[C@@H](n3ccc(N)nc3=O)[C@H](O)[C@@H]2O)(C(=O)O)C[C@@H]1O; test: Donor hydrolysis kinetics (CMP-Neu5Ac hydrolysis), His6-Pd2,6ST(16-497); format: biochemical, Photobacterium damselae; conditions: other: apparent, 37° C., 20 min, Tris-HCl pH 8.0, pH 2.6
Protocol: as §1, §2

[5] = GalNAcα2AA 1.0 mM, NaOAc-HOAc pH 5.0, 20° C.
[6] = LacβMU 1.0 mM, Tris-HCl pH 8.0, 20° C.

| Molecule | Km ([1]; acceptor GalNAcα2AA) | kcat ([1]; acceptor GalNAcα2AA) | Km ([1]; acceptor LacβMU) | kcat ([1]; acceptor LacβMU) | Km [2, 5] | kcat [2, 5] | Km [2, 6] | kcat [2, 6] | kcat [3] | kcat [4] |
| --- | --- | --- | --- | --- | --- | --- | --- | --- | --- | --- |
| CC(=O)N[C@H]1[C@H]([C@H](O)[C@H](O)CO)O[C@](OP(=O)(O)OC[C@H]2O[C@@H](n3ccc(N)nc3=O)[C@H](O)[C@@H]2O)(C(=O)O)C[C@@H]1O [CMP-Neu5Ac, cytidine 5′-monophosphate N-acetylneuraminic acid] | 3.9 ± 0.4 mM | 4.8 ± 0.2 min⁻¹ | 0.62 mM | (1.4 ± 0.1) × 10^2 min^−1 | 3.3 ± 0.4 mM | 5.9 ± 0.2 min⁻¹ | 0.63 mM | (1.3 ± 0.1) × 10^2 min^−1 | (2.9 ± 0.3) × 10^2 min^−1 |  |
| B1 |  |  |  |  |  |  |  |  |  | 3.67 ± 0.333 s⁻¹ |
